The text below walks through data of patent US12570661B2, “Isoform-specific aldehyde dehydrogenase inhibitors” (The Board of Trustees of the Leland Stanford Junior …, priority 2020, dated 2026).

The target of one assay is T1, ALDH2 (Homo sapiens, UniProt P05091).
T1 construct: made in house
T1 sequence (P05091 18-517): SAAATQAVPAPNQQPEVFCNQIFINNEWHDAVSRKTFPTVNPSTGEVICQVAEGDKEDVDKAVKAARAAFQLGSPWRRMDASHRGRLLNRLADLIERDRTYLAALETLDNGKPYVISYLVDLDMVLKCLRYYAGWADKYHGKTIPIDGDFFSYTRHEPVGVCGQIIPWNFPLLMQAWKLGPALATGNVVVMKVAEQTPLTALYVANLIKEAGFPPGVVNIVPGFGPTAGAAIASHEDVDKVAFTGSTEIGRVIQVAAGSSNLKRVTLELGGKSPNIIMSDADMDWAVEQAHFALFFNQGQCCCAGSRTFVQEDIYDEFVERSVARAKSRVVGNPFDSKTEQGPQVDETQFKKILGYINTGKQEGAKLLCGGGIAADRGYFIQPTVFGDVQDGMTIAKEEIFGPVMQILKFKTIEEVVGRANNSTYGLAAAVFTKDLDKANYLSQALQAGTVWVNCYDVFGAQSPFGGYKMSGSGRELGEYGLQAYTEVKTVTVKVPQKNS
Kind of assay: ALDH2 enzyme kinetics assay. The settings on record: 50-μM compound concentration. It is filed as biochemical. How it is done: (§1) Cloning, expression, and purification of human recombinant ALDH1A1, ALDH1A3, ALDH2, ALDH3A1, ALDH3A2, ALDH4A1, ALDH5A1 and ALDH7A1 isozymes were conducted as described previously (Chen, C. H. et al. (2015) Proc. Natl. Acad. Sci. U.S.A. 112, 3074-3079). Human ALDH1A2 (Origene, SC109995) and ALDH1B1 (T. Hurley, Indiana University) plasmids were cloned into the pET-15b expression vector (Novagen, 69661-3) containing an N-terminal hexahistidine tag. The mitochondria-targeting sequence of ALDH1B1 was also removed. […] The protein concentration for each fraction was measured (500 μL elution volume was collected as one fraction and was immediately mixed with 500 μL glycerol. The protein concentration for each fraction was measured (600 nm Protein Assay Reagent; Thermo Fisher Scientific), and protein-containing fractions were diluted with an equal volume of glycerol and stored at −80° C. Samples from each step were also collected for SDS-PAGE gel analysis. For ALDH1B1 protein co-expression with chaperones, pET-15b-ALDH1B1 and GroEL/GroES (Addgene, plasmid pBB541) plasmids were co-transformed into competent BL21 E. coli cells, which were subsequently grown in 1 L of Luria-Bertani medium containing 100 μg/mL ampicillin and 50 μg/mL spectinomycin at 37° C. […]

A further assay has as its target T2, ALDH1B1 (Homo sapiens, UniProt P30837).
T2 sequence (P30837 18-517): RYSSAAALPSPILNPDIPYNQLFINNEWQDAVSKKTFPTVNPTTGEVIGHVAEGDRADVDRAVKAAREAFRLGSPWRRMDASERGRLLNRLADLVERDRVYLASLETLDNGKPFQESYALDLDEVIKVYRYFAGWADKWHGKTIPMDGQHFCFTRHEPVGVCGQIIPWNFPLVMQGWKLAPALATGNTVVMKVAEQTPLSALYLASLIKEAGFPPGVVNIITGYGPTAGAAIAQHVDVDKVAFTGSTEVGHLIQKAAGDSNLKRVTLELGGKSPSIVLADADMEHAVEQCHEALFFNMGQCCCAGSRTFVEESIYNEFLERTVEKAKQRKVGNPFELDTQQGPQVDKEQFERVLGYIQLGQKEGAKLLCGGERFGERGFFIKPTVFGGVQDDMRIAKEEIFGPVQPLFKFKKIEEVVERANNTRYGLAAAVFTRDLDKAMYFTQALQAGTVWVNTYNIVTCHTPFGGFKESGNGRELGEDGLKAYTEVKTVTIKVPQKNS
Kind of assay: ALDH1B1 enzyme kinetics assay (NADH fluorescence, acetaldehyde substrate). Format: biochemical. Also noted: made in house; host or cells: E. coli BL21 (optionally co-expressed with GroEL/GroES). The following applies: enzyme kinetics assays against ALDH isoforms. How it is done:
Cloning, expression, and purification of human recombinant ALDH1A1, ALDH1A3, ALDH2, ALDH3A1, ALDH3A2, ALDH4A1, ALDH5A1 and ALDH7A1 isozymes were conducted as described previously (Chen, C. H. et al. (2015) Proc. Natl. Acad. Sci. U.S.A. 112, 3074-3079). Human ALDH1A2 (Origene, SC109995) and ALDH1B1 (T. Hurley, Indiana University) plasmids were cloned into the pET-15b expression vector (Novagen, 69661-3) containing an N-terminal hexahistidine tag. The mitochondria-targeting sequence of ALDH1B1 was also removed. For protein expression without chaperones, the pET-15b based plasmids were transformed into competent BL21 E. coli cells, which were subsequently grown in 1 L of Luria-Bertani medium containing 100 μg/mL ampicillin at 37° C. Once the OD600 value reached 0.6, the culture was transferred to 16° C. and 0.5 mM isopropyl β-d-1-thiogalactopyranoside was introduced to induce protein expression overnight. The bacteria were then pelleted by centrifugation (3000×g, 4° C. for 30 rain) and harvested. 40 mL BugBuster Master Mix buffer (MilliporeSigrna) containing a protease inhibitor cocktail (cOmplete; Roche) was added, and the cells were lysed by mechanically rolling the suspension at room temperature for 25 min. The lysate was centrifuged (16000×g, 4° C. for 30 min), and the soluble fraction was collected and mixed with 2 mL of Ni-NTA Superflow resin (Qiagen). After the mixture was avowed to rock at 4° C. for 1 h, it was used to create a 10-mL gravity column, which was sequentially treated with 40 mL of wash buffer 1 (20 mM sodium phosphate, 500 mM NaCl, 1 mM DTT, 20 mM imidazole, 5% glycerol, pH 7.4) and 25 mL of wash buffer 2 (20 mM sodium phosphate, 500 mM NaCl, 1 mM DTT, 40 mM imidazole, 5% glycerol, pH 7.4). The hexahistidine-tagged protein was then recovered by treated the column with 5 mL elution buffer (20 mM sodium phosphate, 500 mM NaCl, 1 mM DTT, 400 mM imidazole, 5% glycerol, pH 7.4) and collecting 500-μL fractions. The protein concentration for each fraction was measured (500 μL elution volume was collected as one fraction and was immediately mixed with 500 μL glycerol. The protein concentration for each fraction was measured (600 nm Protein Assay Reagent; Thermo Fisher Scientific), and protein-containing fractions were diluted with an equal volume of glycerol and stored at −80° C. Samples from each step were also collected for SDS-PAGE gel analysis. For ALDH1B1 protein co-expression with chaperones, pET-15b-ALDH1B1 and GroEL/GroES (Addgene, plasmid pBB541) plasmids were co-transformed into competent BL21 E. coli cells, which were subsequently grown in 1 L of Luria-Bertani medium containing 100 μg/mL ampicillin and 50 μg/mL spectinomycin at 37° C. The hexahistidine-tagged ALDH1B1 protein was then expressed and purified as described above.
To evaluate compound activities against ALDH isoforms, reaction mixtures consisting of enzyme assay buffer (100 mM sodium phosphate, 1 mM MgCl2, pH 8.0) and 0.1% DMSO, 1 mM β-mercaptoethanol, 1 mM NAD^+, and the bacterially expressed protein were prepared in white opaque 96-well assay plates (100 μL/well, flat-bottom and non-treated; Corning Costar). 5 μg/mL ALDH enzyme was used for single-dose (1, 10, 50 μM) compound test, and 1 μg/mL ALDH enzyme was used for IC50s determination. Acetaldehyde was then added to each well to achieve an initial substrate concentration of 1 mM, and the resulting enzymatic activity was measured based on NADH fluorescence. The fluorescence signal was read over the course of 10 min on a SpectraMax M2e microplate reader (340-nm excitation and 460-nm emission; Molecular Devices) operated by SoftMax Pro software. Compound activities were normalized to a DMSO control, and dose-response inhibition curves were fitted with four-parameter non-linear regression using Prism software. […]

The target of a further assay is T3, ALDH1A3 (Homo sapiens, UniProt P47895).
T3 construct: made in house
T3 sequence (P47895 1-512): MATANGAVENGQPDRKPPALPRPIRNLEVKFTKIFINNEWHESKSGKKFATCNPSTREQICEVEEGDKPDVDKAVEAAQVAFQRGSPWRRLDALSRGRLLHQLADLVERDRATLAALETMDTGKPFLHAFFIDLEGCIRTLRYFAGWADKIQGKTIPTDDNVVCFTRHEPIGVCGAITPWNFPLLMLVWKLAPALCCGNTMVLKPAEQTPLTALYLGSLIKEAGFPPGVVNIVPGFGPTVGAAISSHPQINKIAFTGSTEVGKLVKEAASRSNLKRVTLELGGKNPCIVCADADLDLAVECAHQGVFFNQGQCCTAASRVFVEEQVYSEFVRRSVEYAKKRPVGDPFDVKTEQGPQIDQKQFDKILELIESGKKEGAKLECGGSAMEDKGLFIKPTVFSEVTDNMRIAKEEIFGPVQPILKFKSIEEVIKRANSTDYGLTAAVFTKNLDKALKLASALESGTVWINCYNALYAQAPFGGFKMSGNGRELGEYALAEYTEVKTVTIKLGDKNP
Kind of assay: ALDH1A3 enzyme kinetics assay. It is filed as biochemical. The following applies: enzyme kinetics assays, 1-μM dose. The protocol: as §1

The next assay concerns NIH-3T3 cells. Description: Seahorse oxygen-consumption-rate assay (NIH3T3). Format: cell-based, murine. The following applies: Mus musculus.
Another assay concerns SW480 cells (adherent). Description: Cell viability assay, adherent SW480 cultures. Format: cell-based, human. The following applies: Homo sapiens, SW480, 168 h; adherent culture, 7 days. How it is done: SW480 or HCT116 cells were seeded into regular or Matrigel-coated 96-well plates at a density of 1000 cells/well. The cells were cultured in the corresponding adherent or spheroid culture medium (200 μL/well) containing the designated compounds or an equivalent amount of DMSO vehicle. Each culture was maintained for 7 days, and then cell viabilities were measured using a CellTiter-Glo 3D Cell Viability Assay kit (Promega). Briefly, 100 μL of the culture medium was removed from each well and replaced with 100 μL 3D Cell Assay reagent. The cells in each well were next homogenized by vigorous pipetting, and the plate was incubated for 10 min at room temperature to stabilize the chemiluminescent signal. A 150-μL aliquot from each well was then transferred into a white opaque 96-well assay plate (flat-bottom and non-treated; Corning Costar) and luminescence intensities were measured with a Veritas microplate luminometer (Turner BioSystems).

Turning to `C#CCOc1ccc(-n2cc(-c3ccc(N=[N+]=[N-])cc3)[n+]3c2CCCCC3)cc1` [Imidazolium 3], on ALDH2, the “inhibition of ALDH2 activity” value is given as “only partially suppressed”.

For `COc1ccccc1-n1cc(-c2ccc(-c3ccc([N+](=O)[O-])cc3)cc2)[n+]2c1CCCCC2.[Br-]` [Imidazolium 10], on ALDH1B1, the “ALDH1B1 inhibition / isoform selectivity (in words)” value is “inhibitor of both ALDH1B1 and ALDH1A3”. Moreover, the “ALDH1A3 inhibition / isoform selectivity (in words)” value at ALDH1A3 is “inhibitor of both ALDH1B1 and ALDH1A3”.

As for `CCOc1ccc(-n2cc(-c3ccc(-c4ccc(C(=O)OC)cc4)cc3)[n+]3c2CCCCC3)cc1` [Imidazolium 46], the “ALDH1A3 inhibition / isoform selectivity (in words)” value on ALDH1A3 was “ALDH1A3-specific inhibitor”.

The term IC50 denotes the concentration that gives 50% inhibition. Read a low IC50 as greater potency. What is called GI50 is the concentration giving 50% growth inhibition. A lower GI50 goes with more potent growth inhibition. In turn, `c1ccc(-c2ccc(-c3cn(C4CCCCC4)c4[n+]3CCCCC4)cc2)cc1` [Imidazolium 53] returned an IC50 in the assay with NIH-3T3 cells of 170 nM. The compound also yielded a concentration for 50% growth inhibition (GI50) in the assay on SW480 cells (adherent) of 820 nM.
